Assay results taken from ChEMBL document CHEMBL4359908, “Structure-activity relationship with pyrazoline-based aromatic sulfamates as carbonic anhydrase isoforms I, II, IX and XII inhibitors: Synthesis and biological evaluation” (Eur J Med Chem, 2019).

Experiments:
[1] = target: Carbonic anhydrase 2 (Homo sapiens, UniProt P00918); test: Inhibition of human carbonic anhydrase 2 assessed as inhibitory constant incubated for 15 mins by phenol red dye based stopped flow assay
[2] = target: Carbonic anhydrase 12 (Homo sapiens, UniProt O43570); test: Inhibition of human carbonic anhydrase 12 assessed as inhibitory constant incubated for 15 mins by phenol red dye based stopped flow assay
Carbonic anhydrase 12, sequence (O43570 whole entry): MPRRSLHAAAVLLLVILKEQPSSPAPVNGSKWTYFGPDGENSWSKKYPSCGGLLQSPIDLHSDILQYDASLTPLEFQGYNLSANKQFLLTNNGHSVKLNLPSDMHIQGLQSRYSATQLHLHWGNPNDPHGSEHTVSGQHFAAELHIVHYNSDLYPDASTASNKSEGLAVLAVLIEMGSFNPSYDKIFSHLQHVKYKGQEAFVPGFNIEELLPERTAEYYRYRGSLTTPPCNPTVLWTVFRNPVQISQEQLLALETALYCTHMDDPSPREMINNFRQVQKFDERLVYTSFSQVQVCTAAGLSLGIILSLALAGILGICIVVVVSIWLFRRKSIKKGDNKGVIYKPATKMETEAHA

[3] = target: Carbonic anhydrase 1 (Homo sapiens, UniProt P00915); test: Inhibition of human carbonic anhydrase 1 assessed as inhibitory constant incubated for 15 mins by phenol red dye based stopped flow assay
Carbonic anhydrase 1, sequence (P00915 whole entry): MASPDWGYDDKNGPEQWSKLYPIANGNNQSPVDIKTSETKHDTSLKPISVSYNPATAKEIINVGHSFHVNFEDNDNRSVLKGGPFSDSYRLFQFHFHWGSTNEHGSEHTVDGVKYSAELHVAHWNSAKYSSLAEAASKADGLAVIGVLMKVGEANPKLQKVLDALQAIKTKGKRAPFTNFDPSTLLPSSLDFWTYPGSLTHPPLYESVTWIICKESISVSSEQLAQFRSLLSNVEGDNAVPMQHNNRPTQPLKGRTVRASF

[4] = target: Carbonic anhydrase 9 (Homo sapiens, UniProt Q16790); test: Inhibition of human carbonic anhydrase 9 assessed as inhibitory constant incubated for 15 mins by phenol red dye based stopped flow assay

| Ki [1] [nM] | Ki [2] [nM] | Ki [3] [nM] | Ki [4] [nM] | Structure (SMILES) |
| --- | --- | --- | --- | --- |
| 22.9 | 20.5 | 2550 | 9.4 | CC(=O)N1N=C(c2ccc([N+](=O)[O-])cc2)CC1c1cccc(OS(N)(=O)=O)c1 (configuration not stated) |
| 16.5 | 22.9 | 755 | 13.1 | CC(=O)N1N=C(c2ccccc2)CC1c1cccc(OS(N)(=O)=O)c1 (configuration not stated) |
| 134 | 20.8 | 1460 | 10.1 | CC(=O)N1N=C(c2cccc(OS(N)(=O)=O)c2)CC1c1ccc([N+](=O)[O-])cc1 (configuration not stated) |
| 1.2 |  | 3210 | 74.3 | CC(=O)N1N=C(c2ccc(OS(N)(=O)=O)cc2)CC1c1ccc([N+](=O)[O-])cc1 (configuration not stated) |
| 52.4 | 48.6 | 172 | 8.7 | COc1ccc(C2CC(c3cccc(OS(N)(=O)=O)c3)=NN2C(C)=O)cc1 (configuration not stated) |
| 0.83 |  | 2740 | 29.3 | CC(=O)N1N=C(c2ccc(OS(N)(=O)=O)cc2)CC1c1ccc(C(F)(F)F)cc1 (configuration not stated) |
| 0.42 | 9.5 | 2980 | 22.8 | COc1ccc(C2=NN(C(C)=O)C(c3ccc(OS(N)(=O)=O)cc3)C2)cc1 (configuration not stated) |
| 1.5 | 11.8 | 666 | 5.9 | CC(=O)N1N=C(c2ccc(OS(N)(=O)=O)cc2)CC1c1ccc(F)cc1 (configuration not stated) |
| 25.4 | 49.8 | 1540 | 8.9 | CC(=O)N1N=C(c2ccc(C)cc2)CC1c1cccc(OS(N)(=O)=O)c1 (configuration not stated) |
| 0.87 | 9.8 | 2310 | 0.72 | CC(=O)N1N=C(c2ccc(OS(N)(=O)=O)cc2)CC1c1cccc(Cl)c1 (configuration not stated) |
| 32.7 | 22.3 | 2140 | 0.81 | CC(=O)N1N=C(c2ccc(Cl)cc2)CC1c1cccc(OS(N)(=O)=O)c1 (configuration not stated) |
| 8.9 |  | 1310 | 34.1 | CC(=O)N1N=C(c2ccc(OS(N)(=O)=O)cc2)CC1c1ccccc1 (configuration not stated) |
| 223 | 61.3 | 1780 | 63.6 | CC(=O)N1N=C(c2cccc(OS(N)(=O)=O)c2)CC1c1c(Cl)cccc1Cl (configuration not stated) |
| 27.5 | 56.4 | 3300 | 49 | CC(=O)N1N=C(c2ccc(OS(N)(=O)=O)cc2)CC1c1cccc2ccccc12 (configuration not stated) |
| 92.6 | 34.2 | 2040 | 58.9 | CC(=O)N1N=C(c2cccc(OS(N)(=O)=O)c2)CC1c1cc(Cl)ccc1Cl (configuration not stated) |
| 6.5 | 22.3 | 817 | 7.1 | CC(=O)N1N=C(c2ccc(OS(N)(=O)=O)cc2)CC1c1ccc(C)cc1 (configuration not stated) |
| 13.2 | 43.7 | 4080 | 33.4 | CC(=O)N1N=C(c2ccc(OS(N)(=O)=O)cc2)CC1c1c(Cl)cccc1Cl (configuration not stated) |
| 19.5 | 29.5 | 970 | 8.3 | CC(=O)N1N=C(c2ccc(Cl)cc2)CC1c1ccc(OS(N)(=O)=O)cc1 (configuration not stated) |
| 6 | 27.3 | 1140 | 6.9 | CC(=O)N1N=C(c2ccc(OS(N)(=O)=O)cc2)CC1c1ccc(Cl)cc1 (configuration not stated) |
| 22.2 | 8.9 | 952 | 3.7 | CC(=O)N1N=C(c2cccc(OS(N)(=O)=O)c2)CC1c1ccc(C(F)(F)F)cc1 (configuration not stated) |
